Data on 13 compounds can be found in US20240208992A1, “MACROCYCLES AS CFTR MODULATORS” (Idorsia Pharmaceuticals Ltd, priority 2021, published 2024).

Molecules are shown by their SMILES. pEC50: −log10 of the molar value.

The target in the test is human F508del-CFTR (Homo sapiens, UniProt P13569, DEL508-508). The test is described as follows: F508del-CFTR cell surface expression (corrector activity), DiscoveRx ß-galactosidase complementation chemiluminescence assay in recombinant U2OS cell line.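 For all read-outs here: U2OS cells co-expressing ProLink-tagged F508del-CFTR and a membrane-anchored enzyme acceptor, where more surface CFTR restores β-galactosidase activity measured by chemiluminescence.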 As to conditions: U2OS cells, 16h compound incubation; for pEC50: geomean of several measurements; for Emax: in relation to the Emax of the corrector lumacaftor (=100%), arithmetic mean.
Chain of human F508del-CFTR (P13569 with tags, fused parts or gaps DEL508-508): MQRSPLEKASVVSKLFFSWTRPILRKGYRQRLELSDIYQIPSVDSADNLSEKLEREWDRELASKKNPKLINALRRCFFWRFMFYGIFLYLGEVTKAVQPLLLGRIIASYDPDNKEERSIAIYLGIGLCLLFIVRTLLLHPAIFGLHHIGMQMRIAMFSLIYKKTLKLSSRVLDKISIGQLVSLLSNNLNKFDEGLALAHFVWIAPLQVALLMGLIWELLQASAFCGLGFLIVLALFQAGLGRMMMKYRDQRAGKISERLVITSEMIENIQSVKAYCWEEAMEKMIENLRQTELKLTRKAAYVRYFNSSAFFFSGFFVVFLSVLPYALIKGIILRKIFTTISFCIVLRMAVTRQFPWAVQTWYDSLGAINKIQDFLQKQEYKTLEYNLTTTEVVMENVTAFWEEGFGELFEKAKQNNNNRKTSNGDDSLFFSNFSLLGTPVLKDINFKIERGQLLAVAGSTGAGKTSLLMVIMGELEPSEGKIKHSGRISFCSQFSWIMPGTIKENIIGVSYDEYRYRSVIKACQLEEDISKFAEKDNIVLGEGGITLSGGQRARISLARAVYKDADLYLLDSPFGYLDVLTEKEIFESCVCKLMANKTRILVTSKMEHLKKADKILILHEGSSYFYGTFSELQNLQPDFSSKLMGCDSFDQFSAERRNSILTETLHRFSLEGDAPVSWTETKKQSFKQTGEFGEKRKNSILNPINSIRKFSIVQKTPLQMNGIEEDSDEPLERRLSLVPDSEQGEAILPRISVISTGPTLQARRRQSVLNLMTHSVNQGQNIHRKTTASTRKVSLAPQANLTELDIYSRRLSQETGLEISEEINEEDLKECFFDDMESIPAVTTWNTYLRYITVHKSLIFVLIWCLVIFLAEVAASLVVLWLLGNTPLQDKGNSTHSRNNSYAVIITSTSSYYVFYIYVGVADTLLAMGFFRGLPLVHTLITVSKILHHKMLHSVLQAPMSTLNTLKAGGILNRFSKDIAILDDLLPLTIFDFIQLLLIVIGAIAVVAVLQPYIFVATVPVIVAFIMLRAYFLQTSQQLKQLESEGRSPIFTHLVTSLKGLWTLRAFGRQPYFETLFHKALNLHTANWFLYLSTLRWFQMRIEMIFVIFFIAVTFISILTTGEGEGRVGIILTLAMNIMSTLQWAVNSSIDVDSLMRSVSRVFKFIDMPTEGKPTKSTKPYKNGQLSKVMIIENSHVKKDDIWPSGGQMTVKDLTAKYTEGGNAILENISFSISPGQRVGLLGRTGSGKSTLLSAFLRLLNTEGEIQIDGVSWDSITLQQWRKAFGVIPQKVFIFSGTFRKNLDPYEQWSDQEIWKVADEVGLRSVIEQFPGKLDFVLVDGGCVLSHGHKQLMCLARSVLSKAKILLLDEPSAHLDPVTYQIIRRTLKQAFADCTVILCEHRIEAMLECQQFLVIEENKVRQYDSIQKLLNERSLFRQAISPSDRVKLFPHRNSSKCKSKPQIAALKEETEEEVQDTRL

[1] abbreviates: EC50, F508del-CFTR cell surface expression.

With `COc1cc(CCNC(=O)[C@@H]2CC(=O)N(C)[C@@H](CC(C)C)C(=O)N(C)[C@@H](Cc3nc(C(F)(F)F)no3)C(=O)N[C@H](Cc3ccccc3)COc3cnc4ccc(F)cc4c3C(=O)N2)on1` [Example 810, (3S,7S,10S,13R)-13-benzyl-20-fluoro-7-isobutyl-N-(2-(3-methoxyisoxazol-5-yl)ethyl)-6,9-dimethyl-1,5,8,11-tetraoxo-10-((3-(trifluoromethyl)-1,2,4-oxadiazol-5-yl)methyl)-1,2,3,4,5,6,7,8,9,10,11,12,13,14-tetradecahydro-[1]oxa[4,7,10,14]tetraazacycloheptadecino[17,16-c]quinoline-3-carboxamide], the pEC50 under setting [1] is 6.79. Also, the Emax (U2OS) is 285%.

`CC(C)C[C@H]1C(=O)N(C)[C@H](Cc2nc(C(F)(F)F)no2)C(=O)N[C@H](Cc2ccccc2)COc2cnc3ccc(F)cc3c2C(=O)N[C@H](C(=O)NCCc2noc(C3CC3)n2)CC(=O)N1C` [Example 811, (3S,7S,10R,13R)-13-benzyl-N-(2-(5-cyclopropyl-1,2,4-oxadiazol-3-yl)ethyl)-20-fluoro-7-isobutyl-6,9-dimethyl-1,5,8,11-tetraoxo-10-((3-(trifluoromethyl)-1,2,4-oxadiazol-5-yl)methyl)-1,2,3,4,5,6,7,8,9,10,11,12,13,14-tetradecahydro-[1]oxa[4,7,10,14]tetraazacycloheptadecino[17,16-c]quinoline-3-carboxamide]: under setting [1], the pEC50 was 7.72. The Emax (U2OS) came to 333%.

In the case of `CC(C)C[C@H]1C(=O)N(C)[C@@H](Cc2nc(C(F)(F)F)no2)C(=O)N[C@H](Cc2ccccc2)COc2cnc3ccc(F)cc3c2C(=O)N[C@H](C(=O)NCCc2noc(C3CC3)n2)CC(=O)N1C` [Example 812, (3S,7S,10S,13R)-13-benzyl-N-(2-(5-cyclopropyl-1,2,4-oxadiazol-3-yl)ethyl)-20-fluoro-7-isobutyl-6,9-dimethyl-1,5,8,11-tetraoxo-10-((3-(trifluoromethyl)-1,2,4-oxadiazol-5-yl)methyl)-1,2,3,4,5,6,7,8,9,10,11,12,13,14-tetradecahydro-[1]oxa[4,7,10,14]tetraazacycloheptadecino[17,16-c]quinoline-3-carboxamide], under setting [1], the negative logarithm of the EC50 (pEC50) was 6.90. In addition, the Emax (U2OS) is 280%.

For the compound `CC(C)C[C@H]1C(=O)N(C)[C@H](Cc2nc(-c3ccc(F)cn3)no2)C(=O)N[C@H](Cc2ccccc2)COc2cnc3ccc(F)cc3c2C(=O)N[C@H](C(=O)NCCc2noc(C3CC3)n2)CC(=O)N1C` [Example 813, (3S,7S,10R,13R)-13-benzyl-N-(2-(5-cyclopropyl-1,2,4-oxadiazol-3-yl)ethyl)-20-fluoro-10-((3-(5-fluoropyridin-2-yl)-1,2,4-oxadiazol-5-yl)methyl)-7-isobutyl-6,9-dimethyl-1,5,8,11-tetraoxo-1,2,3,4,5,6,7,8,9,10,11,12,13,14-tetradecahydro-[1]oxa[4,7,10,14]tetraazacycloheptadecino[17,16-c]quinoline-3-carboxamide], the pEC50 under setting [1] was 6.96. Further, for the setting “U2OS”, the Emax came out at 346%.

As for `CC(C)C[C@H]1C(=O)N(C)[C@@H](Cc2nc(-c3ccc(F)cn3)no2)C(=O)N[C@H](Cc2ccccc2)COc2cnc3ccc(F)cc3c2C(=O)N[C@H](C(=O)NCCc2noc(C3CC3)n2)CC(=O)N1C` [Example 814, (3S,7S,10S,13R)-13-benzyl-N-(2-(5-cyclopropyl-1,2,4-oxadiazol-3-yl)ethyl)-20-fluoro-10-((3-(5-fluoropyridin-2-yl)-1,2,4-oxadiazol-5-yl)methyl)-7-isobutyl-6,9-dimethyl-1,5,8,11-tetraoxo-1,2,3,4,5,6,7,8,9,10,11,12,13,14-tetradecahydro-[1]oxa[4,7,10,14]tetraazacycloheptadecino[17,16-c]quinoline-3-carboxamide], the Emax stood at 242%. In addition, the pEC50 (F508del-CFTR cell surface expression) was 6.20.

Consider `COc1cc(CCNC(=O)[C@@H]2CC(=O)N(C)[C@@H](CC(C)C)C(=O)N(C)[C@H](Cc3nc(-c4ccc(F)cn4)no3)C(=O)N[C@H](Cc3ccccc3)COc3cnc4ccc(F)cc4c3C(=O)N2)on1` [Example 815, (3S,7S,10R,13R)-13-benzyl-20-fluoro-10-((3-(5-fluoropyridin-2-yl)-1,2,4-oxadiazol-5-yl)methyl)-7-isobutyl-N-(2-(3-methoxyisoxazol-5-yl)ethyl)-6,9-dimethyl-1,5,8,11-tetraoxo-1,2,3,4,5,6,7,8,9,10,11,12,13,14-tetradecahydro-[1]oxa[4,7,10,14]tetraazacycloheptadecino[17,16-c]quinoline-3-carboxamide], for which, under setting [1], the negative-log EC50 (pEC50) was 6.89. The Emax (U2OS) turned out to be 413%.

Take `COc1cc(CCNC(=O)[C@@H]2CC(=O)N(C)[C@@H](CC(C)C)C(=O)N(C)[C@@H](Cc3nc(-c4ccc(F)cn4)no3)C(=O)N[C@H](Cc3ccccc3)COc3cnc4ccc(F)cc4c3C(=O)N2)on1` [Example 816, (3S,7S,10S,13R)-13-benzyl-20-fluoro-10-((3-(5-fluoropyridin-2-yl)-1,2,4-oxadiazol-5-yl)methyl)-7-isobutyl-N-(2-(3-methoxyisoxazol-5-yl)ethyl)-6,9-dimethyl-1,5,8,11-tetraoxo-1,2,3,4,5,6,7,8,9,10,11,12,13,14-tetradecahydro-[1]oxa[4,7,10,14]tetraazacycloheptadecino[17,16-c]quinoline-3-carboxamide]: under setting [1], the pEC50 is 6.13. Moreover, the Emax (U2OS) was 286%.

Turning to `CC(C)C[C@H]1C(=O)N(C)C2(CC2)C(=O)N[C@H](Cc2ccccc2)COc2ccc3ncc(F)cc3c2C(=O)N[C@H](C(=O)NCCn2nnc(C3CC3)n2)CC(=O)N1C` [Example 817, (3′S,7′S,13′R)-13′-benzyl-N-(2-(5-cyclopropyl-2H-tetrazol-2-yl)ethyl)-20′-fluoro-7′-isobutyl-6′,9′-dimethyl-1′,5′,8′,11′-tetraoxo-2′,3′,4′,5′,6′,7′,8′,9′,11′,12′,13′,14′-dodecahydro-1′H-spiro[cyclopropane-1,10′-[1]oxa[4,7,10,14]tetraazacycloheptadecino[16,17-f]quinoline]-3′-carboxamide], the pEC50 under setting [1] is 6.38. The Emax (U2OS) was 375%.

For `COc1cc(CCNC(=O)[C@@H]2CC(=O)N(C)[C@@H](CC(C)C)C(=O)N(C)C3(CC3)C(=O)N[C@H](Cc3ccccc3)COc3ccc4ncc(F)cc4c3C(=O)N2)on1` [Example 818, (3′S,7′S,13′R)-13′-benzyl-20′-fluoro-7′-isobutyl-N-(2-(3-methoxyisoxazol-5-yl)ethyl)-6′,9′-dimethyl-1′,5′,8′,11′-tetraoxo-2′,3′,4′,5′,6′,7′,8′,9′,11′,12′,13′,14′-dodecahydro-1′H-spiro[cyclopropane-1,10′-[1]oxa[4,7,10,14]tetraazacycloheptadecino[16,17-f]quinoline]-3′-carboxamide], the negative logarithm of the EC50 (pEC50) under setting [1] is 6.41. The maximum response (Emax) (U2OS) stood at 359%.

Regarding `COc1cc(CCNC(=O)[C@@H]2CC(=O)N(C)[C@@H](CC(C)C)C(=O)N(C)[C@H](CC(F)F)C(=O)N[C@H](Cc3ccccc3)COc3ccc4ncc(F)cc4c3C(=O)N2)on1` [Example 819, (3S,7S,10R,13R)-13-benzyl-10-(2,2-difluoroethyl)-20-fluoro-7-isobutyl-N-(2-(3-methoxyisoxazol-5-yl)ethyl)-6,9-dimethyl-1,5,8,11-tetraoxo-1,2,3,4,5,6,7,8,9,10,11,12,13,14-tetradecahydro-[1]oxa[4,7,10,14]tetraazacycloheptadecino[16,17-f]quinoline-3-carboxamide], under setting [1], the pEC50 is 6.56. Further, the Emax (U2OS) is 431%.

`COc1nc(C)cc2c1C(=O)N[C@H](C(=O)NCCc1noc(C3CC3)n1)CC(=O)N(C)[C@@H](CC(C)C)C(=O)N(C)[C@H](Cc1nc(C(F)(F)F)no1)C(=O)N[C@H](Cc1ccccc1)CO2` [Example 820, (3R,6R,9S,13S)-3-benzyl-N-(2-(5-cyclopropyl-1,2,4-oxadiazol-3-yl)ethyl)-9-isobutyl-16-methoxy-7,10,18-trimethyl-5,8,11,15-tetraoxo-6-((3-(trifluoromethyl)-1,2,4-oxadiazol-5-yl)methyl)-2,3,4,5,6,7,8,9,10,11,12,13,14,15-tetradecahydropyrido[3,4-p][1]oxa[4,7,10,14]tetraazacycloheptadecine-13-carboxamide]: under setting [1], the pEC50 is 7.31. Besides, the Emax (U2OS) amounted to 461%.

As to `COc1noc(CCNC(=O)[C@@H]2CC(=O)N(C)[C@@H](CC(C)C)C(=O)N3CCCC[C@@H]3C(=O)N[C@H](Cc3ccccc3)COc3ccc4ncc(F)cc4c3C(=O)N2)n1` [Example 821, (9S,13S,19aR,22R)-22-benzyl-5-fluoro-13-isobutyl-N-(2-(3-methoxy-1,2,4-oxadiazol-5-yl)ethyl)-12-methyl-7,11,14,20-tetraoxo-7,8,9,10,11,12,13,14,17,18,19,19a,20,21,22,23-hexadecahydro-16H-pyrido[2′,1′:6,7][1]oxa[4,7,10,14]tetraazacycloheptadecino[16,17-f]quinoline-9-carboxamide], the pEC50 under setting [1] is 6.70. The Emax (U2OS) is 392%.

Take `COc1cc(CCNC(=O)[C@@H]2CC(=O)N(C)[C@@H](CC(C)C)C(=O)N3CCCC[C@@H]3C(=O)N[C@H](Cc3ccccc3)COc3cc(C)c4ncccc4c3C(=O)N2)on1` [Example 822, (9S,13S,19aR,22R)-22-benzyl-13-isobutyl-N-(2-(3-methoxyisoxazol-5-yl)ethyl)-2,12-dimethyl-7,11,14,20-tetraoxo-7,8,9,10,11,12,13,14,17,18,19,19a,20,21,22,23-hexadecahydro-16H-pyrido[2′,1′:6,7][1]oxa[4,7,10,14]tetraazacycloheptadecino[16,17-f]quinoline-9-carboxamide]: the pEC50 under setting [1] was 6.88. For the setting “U2OS”, the Emax was 363%.

By pEC50 is commonly meant −log10 of the EC50, conventionally taken in molar units. The Emax is the greatest response seen or fitted, relative to the assay's reference.
